Targets include Cytochrome P450 2D6 (Homo sapiens, UniProt P10635); Cytochrome P450 2C9 (Homo sapiens, UniProt P11712); Cytochrome P450 3A4 (Homo sapiens, UniProt P08684).
The target in assay [1] is T1, Replicative DNA helicase DnaB (Mycobacterium tuberculosis, UniProt P9WMR3).
T1 sequence (P9WMR3 whole entry): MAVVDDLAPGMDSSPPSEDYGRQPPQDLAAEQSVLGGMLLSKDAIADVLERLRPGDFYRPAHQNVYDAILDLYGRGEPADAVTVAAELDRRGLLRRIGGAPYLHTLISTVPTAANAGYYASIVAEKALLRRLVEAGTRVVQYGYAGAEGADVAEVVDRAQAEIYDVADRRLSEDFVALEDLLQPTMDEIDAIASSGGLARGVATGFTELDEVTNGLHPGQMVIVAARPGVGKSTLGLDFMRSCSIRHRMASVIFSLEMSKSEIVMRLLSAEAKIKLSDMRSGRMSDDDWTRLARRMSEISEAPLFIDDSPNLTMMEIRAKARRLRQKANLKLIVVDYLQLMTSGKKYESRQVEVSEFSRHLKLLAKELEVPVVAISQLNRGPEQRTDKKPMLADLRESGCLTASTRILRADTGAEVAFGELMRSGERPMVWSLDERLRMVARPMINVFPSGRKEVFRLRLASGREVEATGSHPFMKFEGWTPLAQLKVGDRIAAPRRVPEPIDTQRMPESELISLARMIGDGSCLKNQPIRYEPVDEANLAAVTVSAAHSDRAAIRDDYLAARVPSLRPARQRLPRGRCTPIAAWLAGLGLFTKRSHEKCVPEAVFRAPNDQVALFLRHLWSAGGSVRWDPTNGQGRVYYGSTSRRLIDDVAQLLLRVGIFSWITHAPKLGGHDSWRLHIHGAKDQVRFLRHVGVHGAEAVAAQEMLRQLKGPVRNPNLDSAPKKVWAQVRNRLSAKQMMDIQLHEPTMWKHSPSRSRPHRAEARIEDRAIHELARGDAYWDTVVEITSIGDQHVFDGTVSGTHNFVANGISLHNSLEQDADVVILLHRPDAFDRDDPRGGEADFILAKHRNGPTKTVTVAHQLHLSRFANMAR
Kind of assay: DnaB intein splicing inhibitors, dose response, biochemical, cell-free fluorescence (AID 449749). Type of assay: functional.

A further assay deals with T2, Protein RecA (Mycobacterium tuberculosis, UniProt P9WHJ3).
T2 sequence (P9WHJ3 whole entry): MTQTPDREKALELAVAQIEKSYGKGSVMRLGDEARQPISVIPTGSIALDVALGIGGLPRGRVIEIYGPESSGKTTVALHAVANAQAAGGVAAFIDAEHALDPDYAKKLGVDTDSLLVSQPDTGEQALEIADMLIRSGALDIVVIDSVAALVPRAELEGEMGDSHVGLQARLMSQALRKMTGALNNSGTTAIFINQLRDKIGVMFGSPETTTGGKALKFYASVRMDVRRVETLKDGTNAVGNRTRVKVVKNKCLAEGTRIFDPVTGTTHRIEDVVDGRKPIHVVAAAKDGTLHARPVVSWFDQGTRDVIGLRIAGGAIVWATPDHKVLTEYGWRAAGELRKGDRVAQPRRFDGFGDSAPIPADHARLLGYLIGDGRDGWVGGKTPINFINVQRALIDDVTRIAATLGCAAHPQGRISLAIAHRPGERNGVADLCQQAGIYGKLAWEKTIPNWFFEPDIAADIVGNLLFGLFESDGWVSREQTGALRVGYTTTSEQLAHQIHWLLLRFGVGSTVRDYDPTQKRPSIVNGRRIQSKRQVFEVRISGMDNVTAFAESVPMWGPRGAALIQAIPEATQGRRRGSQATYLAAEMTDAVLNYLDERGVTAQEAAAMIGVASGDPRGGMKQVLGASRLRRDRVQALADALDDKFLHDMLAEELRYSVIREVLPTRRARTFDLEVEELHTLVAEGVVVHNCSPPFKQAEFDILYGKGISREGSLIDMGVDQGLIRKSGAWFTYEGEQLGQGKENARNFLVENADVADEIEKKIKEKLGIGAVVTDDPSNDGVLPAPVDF
Put plainly: Fluorescence Cell-Free Homogeneous Dose Retest to Identify Inhibitors of RecA-Intein Splicing Activity. [Related pubchem assays (depositor defined):AID2097, AID2223, AID489010, AID492950]. Type of assay: functional.

Assay [2] can be described thus: Luminescence Cell-Based Dose Response HTS to Identify Activators of Luciferase Translation or Activity in H4 […] Cells. [Related pubchem assays: 1829 (Project Summary), 1814 (Primary HTS)]. The format is functional.
The subject of the next assay is H4. Put plainly: Luminescence Cell-Based Dose Response HTS to Identify Activators of 5'UTR Stem-Loop Driven Prion Protein mRNA Translation in H4 Neuroglioblastoma Cells. [Related pubchem assays: 1829 (Project Summary), 1814 (Primary HTS)]. Type of assay: functional. The following applies: Homo sapiens.
In a further assay the target is T3, Protein skinhead-1 (Caenorhabditis elegans, UniProt P34707).
T3 sequence (P34707 whole entry): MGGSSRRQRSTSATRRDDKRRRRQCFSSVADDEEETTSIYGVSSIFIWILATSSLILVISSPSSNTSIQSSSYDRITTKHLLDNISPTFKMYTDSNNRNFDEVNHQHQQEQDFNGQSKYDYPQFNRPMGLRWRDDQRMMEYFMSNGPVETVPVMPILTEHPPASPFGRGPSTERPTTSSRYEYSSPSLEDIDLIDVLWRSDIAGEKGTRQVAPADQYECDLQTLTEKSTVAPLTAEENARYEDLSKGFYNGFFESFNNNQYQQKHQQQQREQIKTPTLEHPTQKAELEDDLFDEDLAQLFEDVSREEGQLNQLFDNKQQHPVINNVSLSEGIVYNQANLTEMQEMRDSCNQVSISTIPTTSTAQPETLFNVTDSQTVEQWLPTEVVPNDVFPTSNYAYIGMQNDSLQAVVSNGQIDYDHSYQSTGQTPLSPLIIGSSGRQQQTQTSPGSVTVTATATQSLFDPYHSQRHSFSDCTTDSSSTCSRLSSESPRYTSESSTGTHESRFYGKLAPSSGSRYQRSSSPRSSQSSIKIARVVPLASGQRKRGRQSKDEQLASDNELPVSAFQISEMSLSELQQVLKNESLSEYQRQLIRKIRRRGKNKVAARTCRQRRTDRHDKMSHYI
Type of assay: functional.

Assay [3] concerns Streptococcus sp. 'group A'. Put plainly: growth inhibition of control SK(-) GAS strain, dose response, counter-screen for streptokinase expression inhibitor project, luminescence, kanamycin, BacTiterGlo, confirmation (AID 1900). Type of assay: functional, organism-based. Background: A counterscreen serves to expose hits that act by an unwanted route or on another target.
The target of a further assay is T4, Streptokinase A (Streptococcus pyogenes serotype M1, UniProt P10520).
T4 sequence (P10520 whole entry): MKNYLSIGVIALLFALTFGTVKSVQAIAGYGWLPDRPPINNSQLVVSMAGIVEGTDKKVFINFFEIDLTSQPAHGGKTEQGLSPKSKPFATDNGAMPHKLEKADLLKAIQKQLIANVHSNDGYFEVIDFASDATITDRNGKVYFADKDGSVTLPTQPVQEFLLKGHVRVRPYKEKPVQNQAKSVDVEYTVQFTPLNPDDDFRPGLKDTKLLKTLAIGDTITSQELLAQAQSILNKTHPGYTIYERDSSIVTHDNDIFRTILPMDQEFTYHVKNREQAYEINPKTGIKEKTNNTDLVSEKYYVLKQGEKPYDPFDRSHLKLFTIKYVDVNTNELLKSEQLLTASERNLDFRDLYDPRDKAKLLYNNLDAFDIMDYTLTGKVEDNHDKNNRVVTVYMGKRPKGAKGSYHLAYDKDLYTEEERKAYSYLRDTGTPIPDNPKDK
Put plainly: S. pyogenes streptokinase expression inhibitors, potency, dose response, plasminogen activation absorbance, OD405 (AID 1914).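 Further: secreted streptokinase activity via plasminogen activation per viability signal from cell pellet.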 Type of assay: functional, Streptococcus pyogenes M1 GAS.

A further assay has as its system Streptococcus. Put plainly: Group A Streptococcus viability loss, dose response, counter-screen for streptokinase expression inhibitor project, luminescence, BacTiterGlo (AID 1915).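 Further: potency for reduction of bacterial viability or growth.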 Type of assay: functional, organism-based.
The target in assay [4] is T5, Heat shock factor protein 1 (Mus musculus, UniProt P38532).
T5 sequence (P38532 whole entry): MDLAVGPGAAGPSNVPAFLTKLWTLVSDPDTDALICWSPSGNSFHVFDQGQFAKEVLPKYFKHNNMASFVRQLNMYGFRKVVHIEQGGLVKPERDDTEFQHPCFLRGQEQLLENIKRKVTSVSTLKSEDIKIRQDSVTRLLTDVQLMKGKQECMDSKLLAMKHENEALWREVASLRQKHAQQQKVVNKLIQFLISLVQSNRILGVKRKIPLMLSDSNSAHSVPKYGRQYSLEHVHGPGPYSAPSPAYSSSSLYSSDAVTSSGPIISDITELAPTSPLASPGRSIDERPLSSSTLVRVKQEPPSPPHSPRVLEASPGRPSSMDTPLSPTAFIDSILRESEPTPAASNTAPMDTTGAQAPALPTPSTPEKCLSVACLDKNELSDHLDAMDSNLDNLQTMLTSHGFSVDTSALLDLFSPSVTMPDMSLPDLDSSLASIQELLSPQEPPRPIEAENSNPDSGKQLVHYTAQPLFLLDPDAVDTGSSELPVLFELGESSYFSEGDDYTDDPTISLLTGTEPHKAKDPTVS
Put plainly: inhibition of MG132-induced HSE-luciferase signal, confirmation, cell-based, NIH3T3, luminescence, dose retest (AID 2382).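 Further: NIH3T3 fibroblasts with HSF1-driven luciferase reporter stressed by proteasome inhibitor MG132; luminescence from HSF1-driven luciferase expression after 8 hours of MG132 stress.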 The format is functional.

The text below walks through data of ChEMBL document CHEMBL1201862, “PubChem BioAssay data set” (2004).

The source made the active and inactive calls. For most assays here, no stated cut-off is given here; in the data, actives have a measured EC50 and inactives only a lower limit.

Cytochrome P450 2D6, sequence (P10635 whole entry): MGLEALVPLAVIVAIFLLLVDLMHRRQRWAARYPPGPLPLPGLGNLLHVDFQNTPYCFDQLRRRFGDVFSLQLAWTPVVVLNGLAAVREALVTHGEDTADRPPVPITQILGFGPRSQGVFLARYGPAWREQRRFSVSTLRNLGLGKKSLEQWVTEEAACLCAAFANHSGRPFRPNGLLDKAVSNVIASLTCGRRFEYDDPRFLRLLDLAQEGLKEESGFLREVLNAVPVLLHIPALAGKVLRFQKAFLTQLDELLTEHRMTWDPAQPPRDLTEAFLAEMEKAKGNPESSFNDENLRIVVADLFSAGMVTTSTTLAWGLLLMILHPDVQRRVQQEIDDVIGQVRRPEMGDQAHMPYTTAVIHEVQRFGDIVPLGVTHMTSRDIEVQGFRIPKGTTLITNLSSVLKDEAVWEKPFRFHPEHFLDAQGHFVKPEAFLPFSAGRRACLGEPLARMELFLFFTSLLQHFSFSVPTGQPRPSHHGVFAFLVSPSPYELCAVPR
Cytochrome P450 3A4, sequence (P08684 whole entry): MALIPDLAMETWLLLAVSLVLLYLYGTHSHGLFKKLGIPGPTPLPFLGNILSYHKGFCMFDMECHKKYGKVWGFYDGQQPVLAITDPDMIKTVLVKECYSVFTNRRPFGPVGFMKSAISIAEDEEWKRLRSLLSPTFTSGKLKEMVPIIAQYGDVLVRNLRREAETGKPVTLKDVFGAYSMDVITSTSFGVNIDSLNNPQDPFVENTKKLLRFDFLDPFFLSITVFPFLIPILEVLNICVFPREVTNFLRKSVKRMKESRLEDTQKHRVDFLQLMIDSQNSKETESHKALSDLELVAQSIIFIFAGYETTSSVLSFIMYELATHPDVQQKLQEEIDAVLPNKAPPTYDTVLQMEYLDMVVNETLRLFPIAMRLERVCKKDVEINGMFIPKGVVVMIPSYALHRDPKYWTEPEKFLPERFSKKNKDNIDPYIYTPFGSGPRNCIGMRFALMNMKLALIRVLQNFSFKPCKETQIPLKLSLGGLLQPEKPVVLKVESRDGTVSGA
Cytochrome P450 2C9, sequence (P11712 whole entry): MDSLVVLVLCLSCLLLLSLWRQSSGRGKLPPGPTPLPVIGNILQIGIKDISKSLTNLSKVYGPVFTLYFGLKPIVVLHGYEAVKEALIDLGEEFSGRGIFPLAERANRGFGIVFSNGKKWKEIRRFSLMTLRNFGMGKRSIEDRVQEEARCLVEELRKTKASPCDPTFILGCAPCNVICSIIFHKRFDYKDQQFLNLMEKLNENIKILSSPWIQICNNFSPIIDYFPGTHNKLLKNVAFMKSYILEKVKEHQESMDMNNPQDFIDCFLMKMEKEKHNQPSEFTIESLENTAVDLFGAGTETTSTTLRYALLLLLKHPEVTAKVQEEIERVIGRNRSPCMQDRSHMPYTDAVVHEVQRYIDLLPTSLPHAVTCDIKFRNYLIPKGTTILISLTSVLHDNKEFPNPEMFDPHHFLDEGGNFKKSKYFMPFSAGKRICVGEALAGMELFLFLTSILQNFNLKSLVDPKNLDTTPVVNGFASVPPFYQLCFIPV

In the case of `ClCc1nnc(-c2cc3c(s2)CCCC3)o1`, in assay [1], the AC50 was 10.7 µM (active). Further, the 50% effective concentration (EC50) at Protein RecA was 3.55 µM (active).

Consider `CCOC(=O)c1ccc(CC2S/C(=C(\C#N)C(C)=O)NC2=O)cc1` (configuration not stated), for which the AC50 in [1] is > 380 µM (inactive). Also, the EC50 on Protein RecA was > 380 µM (inactive).

For the molecule `CCCCN(C(=O)c1cccc2c(=O)c(C)c(-c3ccccc3)oc12)c1ccccc1`, the AC50 in [1] is 4.15 µM (active). Also, the EC50 on Protein RecA was 15.2 µM (active). Take `Clc1ccc2[nH]c(-c3ccc(Cl)nc3)nc2c1`: the EC50 in [2] is 22.3 µM (active); with H4 it was > 120 µM (not active).

For the molecule `Cc1ccccc1CNC(=O)c1ccc2sc([C@H]3C[C@H](O)[C@@H](CO)O3)nc2c1`, the IC50 on Protein skinhead-1 is > 100 µM (inactive). In the case of `COc1ccc(C2C(C#N)=C(N)Oc3[nH]nc(C)c32)cc1CN1CCN(c2ccc(F)cc2)CC1` (configuration not stated), the AC50 in assay [1] is 10.3 µM (active); at Cytochrome P450 2D6, 25.1 µM (inconclusive); on Cytochrome P450 2C9 it was 35.5 µM (inconclusive). Moreover, at Protein RecA, the concentration giving a half-maximal response (EC50) is 6.55 µM (active). Consider `Nc1nc(-c2ccc(Oc3ccccc3)cc2)cs1`, for which, at Protein skinhead-1, the IC50 was 98.1 µM (inactive). For the molecule `Nc1nc(-c2ccc(-c3ccccc3)cc2)cs1`, at Protein skinhead-1, the IC50 is > 100 µM (inactive). On to `Cc1n[nH]c2c1C1(CCN(C(=O)c3ccccc3)CC1)C(C#N)=C(N)O2`, for which the AC50 in assay [1] is 7.89 µM (active). Moreover, the half-maximal effective concentration (EC50) on Protein RecA was 1.3 µM (active). On to `CCCC(C(=O)NCC1CCCO1)N(Cc1ccccc1)C(=O)CNS(=O)(=O)c1ccccc1` (configuration not stated), for which the IC50 on Protein skinhead-1 is > 100 µM (inactive). Take `CCN(CC(=O)Nc1ccccc1C(F)(F)F)C(=O)C1CC(=O)N(Cc2ccccc2)C1` (configuration not stated): at Protein skinhead-1, the IC50 was > 100 µM (inactive). Turning to `Oc1cc(-c2ccccc2)n[nH]1`, the AC50 in [1] is 1.43 µM (active). Besides, on Protein RecA, the EC50 was 0.517 µM (active).

Take `O=C(Nc1ncc(Cc2cccc(Cl)c2)s1)c1cccs1`: the EC50 in [3] was 3.67 µM (active); on Streptokinase A it was > 150 µM (not active); with Streptococcus it was 7.17 µM (active). Besides, the values for the AC50 at Cytochrome P450 2D6 and at Cytochrome P450 3A4 were 7.08 µM (inconclusive) and 15.8 µM (inconclusive), respectively. As for `COc1cc(/C=C2/C(=O)N(c3ccc(Br)cc3)N=C2C)cc(OC)c1OC`, the AC50 in assay [1] was 4.08 µM (active). For the same molecule, the concentration giving a half-maximal response (EC50) at Protein RecA is 12.4 µM (active). Regarding `O=C(C=Cc1ccccc1)c1cc(Br)ccc1O`, the IC50 on Protein skinhead-1 is > 100 µM (inactive). `CCOC(=O)/C=c1\s/c(=C(\C#N)C(N)=O)n(-c2ccccc2)c1=O`: the half-maximal activity concentration (AC50) in assay [1] is 9.68 µM (active). At Protein RecA, the 50% effective concentration (EC50) is > 380 µM (inconclusive).

Take `COc1ccccc1C(=O)Nc1ccc(Br)cc1C`: the IC50 on Protein skinhead-1 was > 100 µM (inactive). Same read-out and setting: with `O=[N+]([O-])c1ccc2cn(-c3ccccc3)nc2c1` the figure was 54.4 µM (inactive).

Turning to `Oc1ccc(Nc2nc(-c3ccc(O)cc3)cs2)cc1`, the AC50 in assay [1] is 111 µM (active). Also, on Protein RecA, the EC50 is 43.8 µM (active). As to `Cc1cc(=O)n2nc(-c3ccc(C(F)(F)F)cc3)sc2n1`, the EC50 in assay [2] was > 120 µM (not active); in the assay with H4, 8.75 µM (active); in assay [4], > 195 µM (not active). Consider `CCOc1cc(NC(=O)c2ccco2)c(OCC)cc1NC(=O)CCc1ccccc1OC`, for which the IC50 at Protein skinhead-1 is > 100 µM (inactive).

On to `CCN(CC(=O)Nc1ccccc1C(F)(F)F)C(=O)c1cc(-c2ccccc2)nn1-c1ccccc1`, for which the EC50 is 19.9 µM (active) in assay [3], 23.9 µM (active) on Streptokinase A and > 150 µM (not active) with Streptococcus. With `CCn1c(SCC(=O)N2CC(C)OC(C)C2)nc2c3ccccc3nc-2c1O` (configuration not stated), the EC50 (in assay [3]; on Streptokinase A; in the assay with Streptococcus) was > 150 µM (not active) each time. With `CCCc1n[nH]c2c1C(c1ccc(OC)cc1OC)C(C#N)=C(N)O2` (configuration not stated), in [1], the AC50 is 6.28 µM (active). For the same molecule, the EC50 at Protein RecA is 4.07 µM (active).

What is called AC50 is the concentration giving half of the maximal activity seen. The EC50 is the midpoint of the concentration-response curve. The term IC50 denotes the concentration that gives 50% inhibition.
